Data set [1] has as its system AMPH-induced DA release in prefrontal cortex (PFC). As to the kind of experiment: Amphetamine. It is filed as in vivo, rat.
For data set [2], the system named is AMPH-induced DA release in striatum. As to the kind of experiment: Amphetamine. The data set is classed as in vivo, rat.
Data set [3] has as its system basal dopamine (DA) levels in prefrontal cortex (PFC). As to the kind of experiment: Basal dopamine levels in PFC, in vivo microdialysis. Also noted: species or system rat.
Data set [4] relates to psychotomimetic effects of ketamine. The following applies: ref D’Souza et al., 2012, cited from earlier work.
Where [5] appears, read: experiments involving Org25935 and DCS.

Where a name gives a salt, the structure may show the parent alone.

On to `NCC(=O)O` [Glycine], for which the “Effect on AMPH-induced DA release in PFC” value in data set [1] (in the presence of PCP, glycine 16% by diet 2 weeks, positive control, 60–210 min) is listed as “significantly reduced DA release”.
`c1ccc(C2(N3CCCCC3)CCCCC2)cc1` [PCP, Phencyclidine hydrochloride]: in data set [2] (setting [5]), the “Effect of PCP on AMPH-induced DA release in striatum” value is “no significant effects”. For the same molecule, in data set [2] (summary statement (abstract)), the “Effect on striatal DA release” value is reported as “Neither PCP nor GTIs significantly affected striatal DA release”. In addition, the “Effect of PCP on AMPH-induced DA release in PFC” value in data set [1] (Org25935 experiments, PCP 15 mg/kg/d, 0–210 min after AMPH 1 mg/kg sc) is “significantly increased AMPH-induced DA release”. In addition, the “Mean basal dopamine (DA) levels in PFC” value in data set [3] (Org25935 experiments, PCP 15 mg/kg/d minipump alone (vehicle), mean ± std dev) is 1.03 ± .80 (16) pg/10 μl. Also, the “Effect on basal DA levels” value in data set [3] (PCP 15 mg/kg/d, experiments involving Org25935) is reported as “no significant effect on basal DA levels”. For the same molecule, the “Effect of treatment on basal DA levels” value in data set [3] (R231857/60 experiments, rmANOVA) is given as “Neither PCP (F1,49=.2, p=.6) nor R231857/R231860 (F3,49=.5, p=.7) treatment significantly altered basal DA levels”.
Consider `N[C@@H]1CON=C1O` [DCS, D-cycloserine], for which the “Effect of drug treatment on AMPH-induced DA release in striatum” value in data set [2] (setting [5]) is “no significant effects”. Also, the “Effect on AMPH-induced DA release in PFC” value in data set [1] (DCS 30 mg/kg ip per day 2 weeks, 60–210 min time period) is “significantly reduced AMPH-induced DA release”; in data set [1] (DCS 30 mg/kg ip per day 2 weeks, in the absence of PCP) it was “no significant effect on AMPH-induced DA release”. Further, the “Effect on PCP-induced enhancement of DA release in prefrontal cortex” value in data set [1] (summary statement (abstract)) is listed as “significantly reduced PCP-induced enhancement of DA release in prefrontal cortex”. Also, in data set [3] (DCS 30 mg/kg ip per day 2 weeks), the “Effect on basal DA levels” value is “no significant effect on basal DA levels”.
As to `COc1ccc2c(c1)CC[C@H](CN(C)CC(=O)O)[C@@H]2c1ccccc1` [Org25935], the “Total symptoms induced by ketamine” value in data set [4] (acute challenge study) is “reversed”. Besides, the “Acute psychotomimetic effects of ketamine” value in data set [4] (healthy volunteers) was “reverse acute psychotomimetic effects of ketamine”. Besides, the “Safety in human use” value in data set [4] (humans) is on record as “safe in human use”. Further, the “Effect of drug treatment on AMPH-induced DA release in striatum” value in data set [2] (setting [5]) was “no significant effects”. Moreover, the “Effect on AMPH-induced DA release in PFC” value in data set [1] (Org25935 5 mg, in the absence of PCP) was “no significant effect on AMPH-induced DA release”; in data set [1] (Org25935 5 mg, in the presence of PCP vs PCP alone, 60–210 min) it was “did not significantly reduced AMPH-induced DA release”; in data set [1] (Org25935 10 mg, in the absence of PCP) it was “no significant effect on AMPH-induced DA release”; in data set [1] (Org25935 10 mg, in the presence of PCP vs PCP alone, 60–210 min), “effective”; in data set [1] (Org25935, across doses, entire 0–210 min interval), “significantly inhibited AMPH-induced DA release”. Moreover, the “Effect on basal DA levels” value in data set [3] (Org25935 5 mg/kg, across control and PCP treatment conditions, post-hoc LSD) is reported as “significant increase in basal DA levels”; in data set [3] (Org25935 10 mg/kg, across control and PCP treatment conditions, post-hoc LSD) it was “non-significant decrease”.

The values above are taken from publication PMC3882073 (European neuropsychopharmacology : the journal of the …, 2012).
